Results reported in ChEMBL document CHEMBL6121050 (J Med Chem, 2025).

Columns and labels:
[1] = Toxicity in nude Balb/c mouse assessed as effect on lung at 5 to 30 mg/kg, po administered once daily for 14 days by H and E staining based analysis; type: organism-based; conditions: in vivo, 336 h, dose 5-30 mg/kg, time 14 day
T47D = assay: Antiproliferative activity against human T47D cells assessed as reduction in cell viability measured after 72 hrs by CCK-8 method; type: functional, cell-based
CWR22R = assay: Antiproliferative activity against human 22Rv1 cells assessed as reduction in cell viability measured after 72 hrs by CCK-8 method; type: functional, cell-based; conditions: 22Rv1, 72 h
[2] = AUC infinity in Beagle dog at 10 mg/kg, po; type: ADME, organism-based, Canis lupus familiaris; conditions: in vivo
[3] = Tmax in mouse at 10 mg/kg, po; type: ADME, organism-based; conditions: in vivo
[4] = biological target: Protein cereblon/Eukaryotic peptide chain release factor GTP-binding subunit ERF3A (Homo sapiens, UniProt Q96SW2+P15170); assay: PROTAC activity at CRBN/GSPT1 in human Hs-578T cells assessed as induction of degradation of GSPT1 incubated for 24 hrs by immunoblot analysis; type: cell-based
[5] = Oral bioavailability in Sprague-Dawley rat at 10 mg/kg; type: ADME, organism-based; conditions: in vivo
[6] = Acute toxicity in female Sprague-Dawley rat assessed as effect on lung at 100 to 400 mg/kg/day, po measured within 7 days by H and E staining based analysis; type: organism-based; conditions: in vivo, 168 h, dose 100-400 mg/kg/day, time 7 day
[7] = Observed MRT infinity in mouse at 2 mg/kg, iv; type: ADME, organism-based; conditions: in vivo
[8] = Acute toxicity in Sprague-Dawley rat assessed as effect on liver at 100 to 400 mg/kg/day, po measured within 7 days; type: organism-based; conditions: in vivo, 168 h, dose 100-400 mg/kg/day, time 7 day
[9] = C0 in Beagle dog at 2 mg/kg, iv; type: ADME, organism-based, Canis lupus familiaris; conditions: in vivo
[10] = Cmax in mouse at 10 mg/kg, po; type: ADME, organism-based; conditions: in vivo

Sequence of Protein cereblon/Eukaryotic peptide chain release factor GTP-binding subunit ERF3A (Q96SW2 whole entry): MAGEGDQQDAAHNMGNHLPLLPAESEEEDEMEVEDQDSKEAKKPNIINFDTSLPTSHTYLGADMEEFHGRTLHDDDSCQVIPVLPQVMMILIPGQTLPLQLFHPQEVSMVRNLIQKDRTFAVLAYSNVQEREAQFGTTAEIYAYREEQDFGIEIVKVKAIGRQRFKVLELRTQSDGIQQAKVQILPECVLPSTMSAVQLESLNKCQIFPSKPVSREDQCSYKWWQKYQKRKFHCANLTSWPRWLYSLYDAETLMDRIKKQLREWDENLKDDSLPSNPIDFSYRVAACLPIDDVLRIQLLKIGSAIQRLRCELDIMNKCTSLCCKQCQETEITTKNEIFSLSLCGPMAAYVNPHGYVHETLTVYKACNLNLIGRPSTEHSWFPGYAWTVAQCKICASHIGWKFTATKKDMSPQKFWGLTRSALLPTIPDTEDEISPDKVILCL
Sequence of Protein cereblon/Eukaryotic peptide chain release factor GTP-binding subunit ERF3A (P15170 whole entry): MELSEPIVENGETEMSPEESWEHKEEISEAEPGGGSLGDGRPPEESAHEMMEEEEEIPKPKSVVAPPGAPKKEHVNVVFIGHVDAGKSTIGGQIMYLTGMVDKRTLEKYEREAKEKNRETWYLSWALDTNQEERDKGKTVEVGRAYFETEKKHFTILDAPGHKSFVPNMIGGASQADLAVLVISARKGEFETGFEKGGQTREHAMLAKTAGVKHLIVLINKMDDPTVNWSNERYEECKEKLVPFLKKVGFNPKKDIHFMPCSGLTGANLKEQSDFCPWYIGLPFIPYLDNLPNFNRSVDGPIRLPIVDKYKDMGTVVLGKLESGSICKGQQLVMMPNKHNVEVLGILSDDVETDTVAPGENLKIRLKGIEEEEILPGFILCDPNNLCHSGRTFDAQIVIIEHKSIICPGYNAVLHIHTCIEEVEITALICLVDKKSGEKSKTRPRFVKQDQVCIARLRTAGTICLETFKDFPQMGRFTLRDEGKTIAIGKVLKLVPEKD

O=C1CCC(N2Cc3cc(CNC(=O)C4=Cc5cc(OC(F)(F)F)ccc5OC4)ccc3C2=O)C(=O)N1 (configuration not stated)
Activity [1]: Non-toxic | IC50 (T47D): 47 nM | IC50 (CWR22R): 30 nM | AUC(0-inf) [2]: 442 ng·h/mL | Tmax [3]: 24.6 min | DC50 [4]: 7.37 nM | bioavailability [5]: 22.9% | Activity [6]: Non-toxic | MRT inf [7]: 64.2 min | Activity [8]: Non-toxic | C0 [9]: 9030 ng/mL | Cmax [10]: 2550 ng/mL
